Counter-ions that a name gives are not always drawn.
Molecular target: T1, protein farnesyltransferase (Rattus norvegicus, UniProt Q02293+Q04631)
T1 construct: The enzyme is purified according to Reiss, Y., et al., Cell, 62: 81-88 (1990), utilizing steps one through three; from tissue; host or cells: rat brain
Assay: Inhibition of farnesyltransferase (scintillation proximity assay, rat brain enzyme, biotin-K Ras B fragment substrate)
Format: biochemical
Details: for inhibition at 0.1 µM: read-out: % inhibition of farnesyltransferase at 1 × 10^-7 M; for inhibition at 0.1 µM / % inhibition of farnesyltransferase at 1 × 10^-7 M: 1 × 10^-7 M (Table 3); for inhibition at 1 µM: read-out: % inhibition of farnesyltransferase at 1 × 10^-6 M; for inhibition at 1 µM / % inhibition of farnesyltransferase at 1 × 10^-6 M: 1 × 10^-6 M (Table 2)
Text: The ability of the compounds of the invention to inhibit protein farnesyltransferase or protein geranylgeranyltransferase can be measured according to the method of Moores, et al., J. Biol. Chem. 266: 14603 (1991) or the method of Vogt, et al., J. Biol. Chem. 270:660-664 (1995). In addition, procedures for determination of the inhibition of farnesylation of the oncogene protein Ras are described by Goldstein, et al., J. Biol. Chem., 266:15575-15578 (1991) and by Singh in U.S. Pat. No. 5,245,061.
In addition, in vitro inhibition of protein farnesyltransferase may be measured by the following procedure. Rat brain protein farnesyltransferase activity is measured using an Amersham Life Science commercial scintillation proximity assay kit and substituting a biotin-K Ras B fragment (biotin-[…]Ble-Met-CO2 H), […] final concentration, for the biotin-lamin substrate provided by Amersham. The enzyme is purified according to Reiss, Y., et al., Cell, 62: 81-88 (1990), utilizing steps one through three.
The % inhibition of protein farnesyltransferase was determined for representative compounds of the invention.

T1 sequence (Q02293 whole entry, one chain of several): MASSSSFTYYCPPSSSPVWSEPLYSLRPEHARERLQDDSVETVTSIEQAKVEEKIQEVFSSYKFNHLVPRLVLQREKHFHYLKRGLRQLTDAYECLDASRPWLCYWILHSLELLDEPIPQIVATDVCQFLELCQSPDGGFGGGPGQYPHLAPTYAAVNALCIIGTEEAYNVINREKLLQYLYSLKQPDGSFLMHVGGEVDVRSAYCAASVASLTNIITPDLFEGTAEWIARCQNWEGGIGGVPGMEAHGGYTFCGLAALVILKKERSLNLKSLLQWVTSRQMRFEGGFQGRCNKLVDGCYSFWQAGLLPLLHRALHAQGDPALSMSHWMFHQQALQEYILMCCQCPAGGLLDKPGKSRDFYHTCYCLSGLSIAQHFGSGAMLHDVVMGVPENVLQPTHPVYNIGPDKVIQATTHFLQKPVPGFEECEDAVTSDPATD

SMILES | inhibition at 1 µM [%] | % inhibition of farnesyltransferase at 1 × 10^-6 M [%] | other results
CSCC[C@H](NC(=O)c1ccc(CCc2ccc(Oc3ccccc3)cc2)cc1-c1ccccc1C)C(=O)O [Example 462, N-[4-(2-(4-phenoxyphenyl)ethyl)-2-(2-methylphenyl)benzoyl]methionine lithium salt] |  |  | inhibition at 0.1 µM: 91%
Cc1ccccc1-c1cc(CCc2ccc(Oc3ccccc3)cc2)ccc1C(=O)N[C@@H](CC[S+](C)[O-])C(=O)O (stereo partly shown) [Example 463, N-[4-(2-(4-phenoxyphenyl)ethyl)-2-(2-methylphenyl)benzoyl]-2-amino-4-methylsulfinylbutanoic acid lithium salt] | 91 |  | 
CSCC[C@H](NC(=O)c1ccc(/C=C/c2ccc3ccccc3c2)cc1-c1ccccc1C)C(=O)O [Example 465, N-[4-(2-naphth-2-ylethenyl)-2-(2-methylphenyl)benzoyl]methionine] | 92 |  | 
CSCC[C@H](NC(=O)c1ccc(/C=C/c2cccc3ccccc23)cc1-c1ccccc1C)C(=O)O [Example 466, N-[4-(2-naphth-1-ylethenyl)-2-(2-methylphenyl)benzoyl]methionine lithium salt] | 93 |  | 
CSCC[C@H](NC(=O)c1ccc(CCc2cccc3ccccc23)cc1-c1ccccc1C)C(=O)O [Example 467, N-[4-(2-naphth-1-ylethyl)-2-(2-methylphenyl)benzoyl]methionine lithium salt] | 97 |  | 
CSCC[C@H](NC(=O)c1ccc(CCc2ccc3ccccc3c2)cc1-c1ccccc1C)C(=O)O [Example 468, lithium salt] | 96 |  | 
CSCC[C@H](NC(=O)c1ccc(CCCc2ccc3ccccc3c2)cc1-c1ccccc1C)C(=O)O [Example 470, N-[4-(3-naphth-2-ylpropyl)-2-(2-methylphenyl)benzoyl]methionine lithium salt] | 95 |  | 
CSCC[C@H](NC(=O)c1ccc(/C=C/CC2CCCCC2)cc1-c1ccccc1C)C(=O)O [Example 471, N-[4-(3-cyclohexylprop-1-enyl)-2-(2-methylphenyl)benzoyl]methionine lithium salt] | 94 |  | 
CSCC[C@H](NC(=O)c1ccc(/C=C/CCc2ccccc2)cc1-c1ccccc1C)C(=O)O [Example 472, N-[4-(4-phenylbut-1-enyl)-2-(2-methylphenyl)benzoyl]methionine] | 97 |  | 
CSCC[C@H](NC(=O)c1ccc(CCCC(=O)c2ccc3ccccc3c2)cc1-c1ccccc1C)C(=O)O [Example 473, N-[4-(4-naphth-2-ylbut-4-on-1-yl)-2-(2-methylphenyl)benzoyl]methionine lithium salt] | 96 |  | 
CSCC[C@H](NC(=O)c1ccc(/C=C/CC(O)c2ccc3ccccc3c2)cc1-c1ccccc1C)C(=O)O (stereo partly shown) [Example 474, N-[4-(4-naphth-2-ylbut-4-ol-1-enyl)-2-(2-methylphenyl)benzoyl]methionine] | 92 |  | 
CSCC[C@H](NC(=O)c1ccc(NCC(CO)(Cc2ccccc2)Cc2ccccc2)cc1-c1ccccc1C)C(=O)O [Example 475] |  | 21 | 
CSCC[C@H](NC(=O)c1ccc(NCC(CO)Cc2ccccc2)cc1-c1ccccc1C)C(=O)O (stereo partly shown) [Example 476] |  | 91 | 
CSCC[C@H](NC(=O)c1ccc(CCCCC2CCCCC2)cc1-c1ccccc1C)C(=O)O [Example 478, N-[4-(4-cyclohexylbutyl)-2-(2-methyphenyl)benzoyl]methionine sodium salt] | 98 |  | 
CSCC[C@H](NC(=O)c1ccc(NCC(CO)CC2CCCCC2)cc1-c1ccccc1C)C(=O)O (stereo partly shown) [Example 479] |  | 95 | 
CSCC[C@H](NC(=O)c1ccc(C=CCCCc2ccccc2)cc1-c1ccccc1C)C(=O)O [Example 480, N-[4-(5-phenylpent-1-enyl)-2-(2-methylphenyl)benzoyl]methionine] | 87 |  | 
CSCC[C@H](NC(=O)c1ccc(NC(=O)c2cnccc2C(F)(F)F)cc1-c1ccccc1C)C(=O)O [Example 481] |  | 95 | 
CSCC[C@H](NC(=O)c1ccc(C#Cc2cncnc2)cc1-c1ccccc1C)C(=O)O [Example 493, N-[4-(2-pyrimidin-5-ylethynyl)-2-(2-methylphenyl)benzoyl]methionine lithium salt] |  |  | inhibition at 0.1 µM: 51%
CSCC[C@H](NC(=O)c1ccc(/C=C/c2cncnc2)cc1-c1ccccc1C)C(=O)O [Example 494, N-[4-(2-pyrimidin-5-ylethen-1-yl)-2-(2-methylphenyl)benzoyl]methionine lithium salt] | 96 |  | 
CSCC[C@H](NC(=O)c1ccc(/C=C/c2cnccn2)cc1-c1ccccc1C)C(=O)O [Example 495, N-[4-(2-pyrazin-2-ylethen-1-yl)-2-(2-methylphenyl)benzoyl]methionine lithium salt] | 95 |  | 
CSCC[C@H](NC(=O)c1ccc(Sc2ccc3ccccc3c2)cc1-c1ccccc1C)C(=O)O [Example 497] |  | 94 | 
CSCC[C@H](NC(=O)c1ccc(SCCc2ccccc2)cc1-c1ccccc1C)C(=O)O [Example 498] |  | 98 | 
CSCC[C@H](NC(=O)c1ccc(NCCO)cc1-c1ccccc1)C(=O)O [Example 502] |  | 24 | 

SMILES | inhibition at 1 µM [%] | % inhibition of farnesyltransferase at 1 × 10^-6 M [%] | other results
CSCC[C@H](NC(=O)c1ccc(NC(=O)[C@@H](N)COCc2ccccc2)cc1-c1ccccc1)C(=O)O [Example 503] |  | 57 | 
CSCC[C@H](NC(=O)c1ccc(CN(Cc2ccccc2)Cc2ccco2)cc1-c1ccccc1C)C(=O)O [Example 504] |  | 90 | 
CSCC[C@H](NC(=O)c1ccc(CN(CCO)c2ccccc2)cc1-c1ccccc1)C(=O)O [Example 505] |  | 72 | 
CSCC[C@H](NC(=O)c1ccc(CN(CCc2ccccc2)c2ccccc2)cc1-c1ccccc1C)C(=O)O [Example 507] |  | 96 | 
CSCC[C@H](NC(=O)c1ccc(CN(CCCc2ccccc2)c2ccccc2)cc1-c1ccccc1C)C(=O)O [Example 508] |  | 95 | 
CSCC[C@H](NC(=O)c1ccc(CN(CC(c2ccccc2)c2ccccc2)c2ccccc2)cc1-c1ccccc1C)C(=O)O [Example 509] |  | 77 | 
CSCC[C@H](NC(=O)c1ccc(CN(CC23CC4CC(CC(C4)C2)C3)c2ccccc2)cc1-c1ccccc1C)C(=O)O [Example 510] |  | 84 | 
CSCC[C@H](NC(=O)c1ccc(CN(CCC23CC4CC(CC(C4)C2)C3)c2ccccc2)cc1-c1ccccc1C)C(=O)O [Example 511] |  |  | % inhibition of farnesyltransferase at 1 × 10^-7 M: 82%
CSCC[C@H](NC(=O)c1ccc(CN(Cc2ccccc2)Cc2ccccc2)cc1-c1ccccc1C)C(=O)O [Example 512] |  | 94 | 
CSCC[C@H](NC(=O)c1ccc(CN(CCc2ccccc2)Cc2ccccc2)cc1-c1ccccc1C)C(=O)O [Example 513] |  | 96 | 
CSCC[C@H](NC(=O)c1ccc(CN(Cc2ccccc2)Cc2cccc(Oc3ccccc3)c2)cc1-c1ccccc1C)C(=O)O [Example 514] |  | 94 | 
CSCC[C@H](NC(=O)c1ccc(CN(CCO)Cc2ccccc2)cc1-c1ccccc1)C(=O)O [Example 515] |  | 72 | 
CSCC[C@H](NC(=O)c1ccc(CN(C)CCc2ccccc2)cc1-c1ccccc1C)C(=O)O [Example 516] |  | 95 | 
CSCC[C@H](NC(=O)c1ccc(CN(CCc2ccccc2)c2cncnc2)cc1-c1ccccc1C)C(=O)O [Example 518] |  |  | % inhibition of farnesyltransferase at 1 × 10^-8 M (1 × 10^-8 M (Table 4)): 90%
CSCC[C@H](NC(=O)c1ccc(CNCCc2c[nH]c3ccccc23)cc1-c1ccccc1C)C(=O)O [Example 519] |  |  | % inhibition of farnesyltransferase at 1 × 10^-7 M: 89%
CSCC[C@H](NC(=O)c1ccc(CN[C@H](CO)C2CCCCC2)cc1-c1ccccc1C)C(=O)O [Example 520] |  |  | % inhibition of farnesyltransferase at 1 × 10^-7 M: 97%
C=C(C)C1CC=C(COCc2ccc(C(=O)N[C@@H](CCSC)C(=O)O)c(-c3ccccc3C)c2)CC1 (stereo partly shown) [Example 521] |  |  | % inhibition of farnesyltransferase at 1 × 10^-7 M: 94%
CSCC[C@H](NC(=O)c1ccc(COC(Cc2ccccc2)Cc2ccccc2)cc1-c1ccccc1C)C(=O)[O-].[Li+] [Example 522] |  |  | % inhibition of farnesyltransferase at 1 × 10^-7 M: 93%
CSCC[C@H](NC(=O)c1ccc(CNC(Cc2ccccc2)Cc2ccccc2)cc1-c1ccccc1C)C(=O)O [Example 523] |  |  | % inhibition of farnesyltransferase at 1 × 10^-7 M: 97%
CSCC[C@H](NC(=O)c1ccc(CNC(CC2CCCCC2)CC2CCCCC2)cc1-c1ccccc1C)C(=O)O [Example 524] |  |  | % inhibition of farnesyltransferase at 1 × 10^-7 M: 99%
CCOC[C@H](CC1CCCCC1)OCc1ccc(C(=O)N[C@@H](CCSC)C(=O)O)c(-c2ccccc2C)c1 [Example 525] |  | 99 | 
CSCC[C@H](NC(=O)c1ccc(CN[C@H](/C=C\CC(C)C)CC2CCCCC2)cc1-c1ccccc1C)C(=O)O [Example 526] |  |  | % inhibition of farnesyltransferase at 1 × 10^-7 M: 96%
CSCC[C@H](NC(=O)c1ccc(CN[C@H](CCCC(C)C)CC2CCCCC2)cc1-c1ccccc1C)C(=O)O [Example 527] |  |  | % inhibition of farnesyltransferase at 1 × 10^-7 M: 97%

Source: patent publication US6221865A, “Inhibitors of protein isoprenyl transferases” (priority 1998, dated 2001)
